Measurements reported in patent publication US11584766B2, “Nicotinamide phosphoribosyltransferase inhibitors and methods for use of the same” (THE TRUSTEES OF INDIANA UNIVERSITY, priority 2018, dated 2023).
“Also recorded” adds a separate entry of the source. Where two headings read alike, the source gives them in different places. One block for each compound: values may come before it.

Assays:
[1] = test system: vascular remodeling caused by PAH; conditions: rat models; cited from earlier work
[2] = test system: human pulmonary artery smooth muscle cells (hPASMCs); test: PrestoBlue Assay (viability), hPASMC; type: cell-based; conditions: for effect on HPASMC viability: dose response, FIG. 8; for IC50: hPASMC, 24 h treatment
Method: (§1) The effect of the compounds disclosed herein on the viability, proliferation, and apoptosis of human pulmonary artery endothelial cells (“hPAECs,”) and human pulmonary artery smooth muscle cells (“hPASMCs”) was determined using the PrestoBlue Assay (viability), CYQuant Direct or BrdU Assay (proliferation) or Tunel Assay (apoptosis), as described below.
(§2) HPAECs (1×10^4 cells/well) or HPASMCs (2.5×10^3 cells/well) were seeded in 96-well plates for 24 h in full-serum tissue culture medium. The full medium was removed prior to treatment with a NAMPT inhibitor prepared in medium containing 0.1% serum. NAMPT inhibitors were solubilized in 100% DMSO, unless otherwise indicated, prior to preparation of the dose response curve in 100% DMSO. The treatment dose response curve was diluted in 0.1% serum tissue culture medium and administered to cells for 24 h. DMSO diluted in the same medium was used as the vehicle control. Cell viability was measured according to the manufacturer's protocol by adding the PrestoBlue Cell Viability Reagent (ThermoFisher Scientific, #A13261) to cells for 20 min at 37° C. in a tissue culture incubator, followed by reading fluorescence at ex560/em590. Cell proliferation was measured, either in the same wells or in separate experiments, by adding the CyQuant Direct Confirmation Reagent (ThermoFisher Scientific, #C35011) for 1 h at 37° C. in a tissue culture incubator, followed by reading fluorescence at ex485/em538. Proliferation was also measured, in separate experiments, using the BrdU Cell Proliferation Assay (Calbiochem, #QIA58). After treatment with a NAMPT inhibitor for 24 h, BrdU was added to the cells in the presence of the inhibitor, for an additional 24 h and BrdU incorporation was detected according to the manufacturer's protocol. Apoptosis was analyzed by seeding cells (1×10^5 cells/well) in 6-well plates for 24 h in full-serum medium, followed by treatment with a NAMPT inhibitor for 24 h in full-serum medium. Tunel staining and detection was performed using the Tunel Assay Kit (Abcam, #ab66110) according to the manufacturer's protocol.

[3] = test system: human pulmonary artery smooth muscle cells (hPASMCs); test: CyQUANT Direct Assay (proliferation), hPASMC; type: cell-based; conditions: dose response, FIG. 9
Method: as §1, §2

NAMPT = target: T1, NAMPT (Homo sapiens, UniProt P43490); test: CycLex NAMPT Colorimetric Assay; type: biochemical; conditions: for IC50: CycLex NAMPT Colorimetric Assay Kit, read-out: NAMPT Inhibition IC50
T1 construct: purchased MBL International Corporation (CycLex NAMPT Colorimetric Assay Kit Ver.2)
Method: The ability of the compounds of the disclosure to inhibit NAMPT was determined using the CycLex NAMPT Colorimetric Assay Kit Ver.2 by MBL International Corporation.
The assay detects NAMPT activity in recombinant NAMPT or endogenous NAMPT immunoprecipiated from cell lysates according to the scheme shown in FIG. 3. In this method, NAMPT converts nicotinamide to nicotinamide mononucleotide (“NMN”). Subsequently, nicotinamide mononucleotide adenylyltransferase 1 (“NMNAT1”) converts NMN to NAD^+. Resultant NAD^+ can be measured by enzyme cycling reaction using alcohol dehydrogenase (“ADH”), diaphorase and WST-1.

[4] = Solubility (2.5% v/v DMSO/water); type: physicochemical
[5] = test system: human pulmonary artery smooth muscle cells (hPASMCs); test: Tunel Assay (apoptosis), hPASMC; type: cell-based
Method: as §1
HPAECs (1×10^4 cells/well) or HPASMCs (2.5×10^3 cells/well) were seeded in 96-well plates for 24 h in full-serum tissue culture medium. The full medium was removed prior to treatment with a NAMPT inhibitor prepared in medium containing 0.1% serum. NAMPT inhibitors were solubilized in 100% DMSO, unless otherwise indicated, prior to preparation of the dose response curve in 100% DMSO. […] Cell viability was measured according to the manufacturer's protocol by adding the PrestoBlue Cell Viability Reagent (ThermoFisher Scientific, #A13261) to cells for 20 min at 37° C. in a tissue culture incubator, followed by reading fluorescence at ex560/em590. Cell proliferation was measured, either in the same wells or in separate experiments, by adding the CyQuant Direct Confirmation Reagent (ThermoFisher Scientific, #C35011) for 1 h at 37° C. in a tissue culture incubator, followed by reading fluorescence at ex485/em538. Proliferation was also measured, in separate experiments, using the BrdU Cell Proliferation Assay (Calbiochem, #QIA58). […]

[6] = test system: human pulmonary artery endothelial cells (hPAECs); test: PrestoBlue Assay (viability), hPAEC; type: cell-based; conditions: for effect on HPAEC viability: dose response, FIG. 4; for IC50: hPAEC, 24 h treatment
Method: as §1, §2

[7] = test system: human pulmonary artery endothelial cells (hPAECs); test: Tunel Assay (apoptosis), hPAEC; type: cell-based; conditions: for IC50: hPAEC; for effect on HPAEC apoptosis: dose response, FIG. 7
Method: as §1, §2

[8] = test system: human pulmonary artery endothelial cells (hPAECs); test: BrdU Assay (proliferation), hPAEC; type: cell-based; conditions: dose response, FIG. 6
Method: as §1, §2

[9] = test system: human pulmonary artery smooth muscle cells (hPASMCs); test: BrdU Assay (proliferation), hPASMC; type: cell-based
Method: as §1, §2

[10] = test system: human pulmonary artery endothelial cells (hPAECs); test: CyQUANT Direct Assay (proliferation), hPAEC; type: cell-based; conditions: for effect on HPAEC proliferation (CYQuant Direct assay): dose response, FIG. 5; for IC50: hPAEC, 24 h treatment
Method: as §1, §2

HepG2 cells = test: Seahorse XF Metabolism Assay (Cell Energy Phenotype Test); type: cell-based; design: Baseline OCR / Stressed OCR / Baseline ECAR / Stressed ECAR: unit not given here
Method: The effect of the compounds disclosed herein on metabolism was determined using the Seahorse XF Cell Energy Phenotype Test Kit by Agilent Technologies. See Agilent Seahorse XF Cell Energy Phenotype Test Kit, User Guide, Manual Part Number 103325-400, Kit Part Number 103325-100, First Edition, March 2017 Agilent Technologies, Inc. This assay measures mitochondrial respiration and glycolysis under baseline and stressed conditions to determine baseline phenotype, stressed phenotype, and metabolic potential.

[11] = test system: Sugen-Hypoxia-induced pulmonary hypertension; test: Sugen-Hypoxia-induced pulmonary hypertension in rats; type: in vivo, rat; conditions: 5 mg/kg every other day IP, days 35-49
Method: (§3) The ability of the compounds disclosed herein to attenuate pulmonary vascular remodeling associated with pulmonary arterial hypertension was determined using monocrotaline (“MCT”)-induced pulmonary hypertension as well as Sugen-Hypoxia-induced pulmonary hypertension in rats.
Sugen 10 mg/kg IP was injected in Sprague Dawley rats who were then exposed to 10% hypoxia for 21 days. After 21 rats were returned to normoxia for 14 days. After 35 when PH was established DGMS-RARI (5 mg/kg every other day) was injected intraperitonealy from days 35-49. At day 49 PH assessments (RVSP measurements via right heart catheterization, RVH measurement via assessment of the ratio between the weight of the right ventricle over the weight of the left ventricle+septum and assessment of right ventricular function via echocardiography) were performed.

[12] = test system: monocrotaline (MCT)-induced pulmonary hypertension; test: MCT-induced pulmonary hypertension in rats; type: in vivo, rat; conditions: 5 mg/kg every other day IP, days 22-35
Method: as §3
MCT 60 mg/kg IP was injected in Sprague Dawley rats. After 21 days when PH was established DGMS-RARI (5 mg/kg every other day) was injected intraperitonealy from days 22-35. At day 35 PH assessments (RVSP measurements via right heart catheterization, RVH measurement via assessment of the ratio between the weight of the right ventricle over the weight of the left ventricle+septum and pulmonary vascular remodeling assessment of H&E stained pulmonary arteries) were performed.

[13] = Plasma concentration and biochemical parameters in MCT-induced rats; type: in vivo, rat
Text: Moreover, significant abnormalities in biochemical parameters and electrolytes were not observed.

[14] = in vivo; cited from earlier work
[15] = Homo sapiens, Endothelial cell, 24 h

T1 sequence (P43490 whole entry): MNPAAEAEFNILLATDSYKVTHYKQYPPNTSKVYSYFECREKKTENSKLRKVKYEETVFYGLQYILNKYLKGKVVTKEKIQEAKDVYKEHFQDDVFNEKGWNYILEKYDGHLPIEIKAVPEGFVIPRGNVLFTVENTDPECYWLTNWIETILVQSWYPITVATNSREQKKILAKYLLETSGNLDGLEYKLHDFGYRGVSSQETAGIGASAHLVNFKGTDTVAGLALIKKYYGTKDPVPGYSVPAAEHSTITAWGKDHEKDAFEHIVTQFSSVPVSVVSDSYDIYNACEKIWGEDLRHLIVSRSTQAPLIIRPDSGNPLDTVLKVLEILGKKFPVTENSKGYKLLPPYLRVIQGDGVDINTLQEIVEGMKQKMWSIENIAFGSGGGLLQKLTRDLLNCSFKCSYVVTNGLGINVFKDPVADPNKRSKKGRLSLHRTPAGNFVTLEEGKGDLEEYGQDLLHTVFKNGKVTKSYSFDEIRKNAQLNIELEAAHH

Compound: N#CN=C(NCCCCCCOc1ccc(Cl)cc1)Nc1ccncc1 [CHS-828]
- vascular remodeling caused by PAH [1]: prevent and reverse

Compound: CC[Si]1(CC)c2ccccc2N(C(=O)CCCCCNC(=O)/C=C/c2cccnc2)C1C.Cl (centres unmarked) [DGMS-RAR-5•HCl]
- effect on HPASMC viability [2]: dose-dependently decrease cell viability
- effect on HPASMC proliferation (CYQuant Direct assay) [3]: dose-dependently decrease cell proliferation
- inhibition at 10 µM (NAMPT; 10 μM): 98%
- IC50 (NAMPT): 0.023 µM
- Solubility (2.5% v/v DMSO/water) [4]: Good

- IC50 ([5]; Homo sapiens): 116 µM
- IC50 ([7]; Homo sapiens, Endothelial cell): 183 µM
- IC50 (NAMPT): 0.015 µM
- Solubility (2.5% v/v DMSO/water) [4]: Good
Compound: Cl.O=C(/C=C/c1cccnc1)NCCCCCC(=O)N1c2ccccc2CC1c1ccccc1 (centres unmarked) [DGMS-RAR-7•HCl]
- effect on HPAEC viability [6]: dose-dependently decrease cell viability; also recorded: reduction
- IC50 [6]: 13.9 µM
- effect on HPAEC apoptosis [7]: dose-dependently decrease apoptosis
- effect on HPAEC proliferation (BrdU assay) [8]: dose-dependently decrease cell proliferation
- IC50 ([2]; Homo sapiens, 24 h): 31.1 µM
- effect on HPASMC viability [2]: dose-dependently decrease cell viability
- effect on HPASMC proliferation (CYQuant Direct assay) [3]: dose-dependently decrease cell proliferation
- IC50 [9]: 63.9 µM
- effect on HPAEC proliferation (CYQuant Direct assay) ([10]; listed as DGMS-RAR-7-HCl): dose-dependently decrease cell proliferation
- effect on HPAEC proliferation (CYQuant Direct assay) ([10]; listed as DGMS-RAR-7.HCl): reduction
- IC50 [10]: 26.6 µM

- IC50 [5]: 94.1 µM
- IC50 [7]: 117 µM
Compound: O=C(/C=C/c1cccnc1)NCCCCCC(=O)N1c2ccccc2CC1c1ccccc1 (centres unmarked) [DGMS-RAR-7•HO3SMe]
- effect on HPAEC viability [6]: dose-dependently decrease cell viability; also recorded: reduction
- IC50 [6]: 17.1 µM
- effect on HPAEC apoptosis [7]: dose-dependently decrease apoptosis
- effect on HPAEC proliferation (BrdU assay) [8]: dose-dependently decrease cell proliferation
- effect on HPASMC viability [2]: dose-dependently decrease cell viability
- IC50 [2]: 26.6 µM
- effect on HPASMC proliferation (CYQuant Direct assay) [3]: dose-dependently decrease cell proliferation
- effect on HPAEC proliferation (CYQuant Direct assay) ([10]; listed as DGMS-RAR-7-HO3SMe): dose-dependently decrease cell proliferation
- effect on HPAEC proliferation (CYQuant Direct assay) ([10]; listed as DGMS-RAR-7.HO3SMe): reduction
- IC50 [10]: 31.9 µM

Compound: O=C(/C=C/c1cccnc1)NCCCCCCn1c(-c2ccccc2)cc2ccccc21 [DGMS-RARI]
- IC50 [6, 15]: 117 µM
- effect on HPAEC viability [6]: dose-dependently decrease cell viability
- Baseline ECAR (HepG2 cells; HepG2, 80 nM): 16.16
- Baseline OCR (HepG2 cells; HepG2, 80 nM): 98.19
- Metabolic Potential (% Baseline ECAR) (HepG2 cells; HepG2, 80 nM): 288.54 % Baseline ECAR
- Metabolic Potential (% Baseline OCR) (HepG2 cells; HepG2, 80 nM): 154.82 % Baseline OCR
- Stressed ECAR (HepG2 cells; HepG2, 80 nM): 46.64
- Stressed OCR (HepG2 cells; HepG2, 80 nM): 152.08
- Baseline ECAR (HepG2 cells; HepG2, 2 uM): 12.28
- Baseline OCR (HepG2 cells; HepG2, 2 uM): 73.92
- Metabolic Potential (% Baseline ECAR) (HepG2 cells; HepG2, 2 uM): 334.84 % Baseline ECAR
- Metabolic Potential (% Baseline OCR) (HepG2 cells; HepG2, 2 uM): 154.18 % Baseline OCR
- Stressed ECAR (HepG2 cells; HepG2, 2 uM): 37.11
- Stressed OCR (HepG2 cells; HepG2, 2 uM): 111.06
- Baseline ECAR (HepG2 cells; HepG2, 10 uM): 18.28
- Baseline OCR (HepG2 cells; HepG2, 10 uM): 60.26
- Metabolic Potential (% Baseline ECAR) (HepG2 cells; HepG2, 10 uM): 194.22 % Baseline ECAR
- Metabolic Potential (% Baseline OCR) (HepG2 cells; HepG2, 10 uM): 148.94 % Baseline OCR
- Stressed ECAR (HepG2 cells; HepG2, 10 uM): 31.23
- Stressed OCR (HepG2 cells; HepG2, 10 uM): 89.62
- inhibition at 10 µM (HepG2 cells; Homo sapiens, HepG2 cells, high doses (10 uM), read-out: inhibition of the maximal oxygen consumption rate): ~30%
- effect on cellular respiration (HepG2 cells; physiological doses (≤80 nM)): no effect on cellular respiration
- degree of right ventricular dysfunction [11]: decreased
- degree of right ventricular hypertrophy [11]: decreased
- severity of elevations in RVSP [11]: decreased
- degree of pulmonary vascular remodeling [12]: decreased
- degree of right ventricular hypertrophy [12]: decreased
- severity of elevations in RVSP [12]: decreased
- effect on HPASMC viability [2]: dose-dependently decrease cell viability
- inhibition at 10 µM (NAMPT): 98%
- IC50 (NAMPT): 0.014 µM
- IC50 [10, 15]: 2.88 µM
- effect on HPAEC proliferation (CYQuant Direct assay) [10]: dose-dependently decrease cell proliferation
- abnormalities in biochemical parameters and electrolytes ([13]; 5 mg/kg): not observed
- average concentration in rat plasma ([13]; 5 mg/kg intravenously, intraperitoneally and orally): decreased with time

Compound: O=C(/C=C/c1cccnc1)NCCCCC1CCN(C(=O)c2ccccc2)CC1 [FK866]
- vascular remodeling caused by PAH [1]: prevent and reverse
- renal toxicity [14]: exhibit renal toxicity
- IC50 [10, 15]: 60.3 µM
